Experimental data reported in article PMC8128204, “Development of 3-methyl/3-(morpholinomethyl)benzofuran derivatives as novel antitumor agents towards non-small cell lung cancer cells” (Journal of Enzyme Inhibition and Medicinal Chemistry, 2021).
Values after ≈ are worked out from the molar mass of the structure shown.

Key:
A549 cells = assay: MTT anti-proliferative assay, A549; format: cell-based, human; settings: mean ± SD of three experiments
Method: (§1) The antiproliferative activity of the synthesised derivatives of the 3-methylbenzofuran series (4a–d, 6a–c, 8a–c and 11) and the 3-(morpholinomethyl)benzofuran series (15a–c, 16a–b, 17a–b and 18) was evaluated against non-small cell lung carcinoma (NSCLC) A549 and NCI-H23 cell lines, following the procedures of the MTT assay. […] 1. Anti-proliferative action toward human […] cell lines […]
(§2) The two examined human non-small cell lung carcinoma cell lines (A549 and NCI-H23) have been obtained from American Type Culture Collection (ATCC). The cells were maintained in Dulbecco's modified Eagle's medium (DMEM) supplemented with 10% heat inactivated fetal calf serum (GIBCO), penicillin (100 U/ml) and streptomycin (100 µg/ml) at 37 °C in humidified atmosphere containing 5% CO2. […]
(§3) flask in 5 ml of culture medium. The anti-proliferative activity of the tested 3-methylbenzofurans (4a-d, 6a-c, 8a-c and 11) and 3-(morpholinomethyl)benzofurans (15a-c, 16a-b, 17a-b and 18) measured in vitro using the MTT assay. Briefly, cells were plated out in 96-well microtiter plate (0.5X10^4 cells/well) and incubated for 24 h before treatment with the tested benzofurans to allow cells to attach to the bottom of the well of the plate. Tested benzofuranswere were dissolved in DMSO at 1 mg/ml immediately before use and diluted to the appropriate volume just before addition to the cell culture. […]
(§4) added to the cells (three wells were prepared for each individual dose). Cells were incubated with […]
(§5) At the end of exposure, MTT […]
(§6) solution in PBS (5 mg/ml) was then added to all well including no cell blank and left to incubate for 90 min. The formation of formazan crystals were visually confirmed using phase contract microscopy. DMSO (100 µl/well) was added to dissolve the formazan crystals with shaking for 10 min after which the absorbance was read at 590 nm against no cell blanks on a microplate reader.
(§7) The relation between percent of surviving fraction and log drug concentration is plotted to get the survival curve for each cell line.

NCI-H23 cells [1] = assay: MTT anti-proliferative assay, NCI-H23; format: cell-based, human; settings: mean ± SD of three experiments
Method: as §1, §2, §3, §4, §5, §6, §7

NCI-H23 cells [2] = assay: Annexin V-FITC/PI apoptosis assay, NCI-H23; format: cell-based, human; settings: NCI-H23, at IC50 concentration; control 2.09%
Method: The apoptotic effect of the three benzofurans (4b, 15a and 16a) was evaluated using Annexin VFITC/PI (AV/PI) dual staining assay to validate if their observed cytotoxic effect is due to non-specific necrosis or physiological apoptosis. […] Moreover, the apoptotic effects of 3-(morpholinomethyl)benzofuran derivatives 15a and 16a were evaluated in NCI-H23 cancer cell line.
(§8) Lung cancer A549 cells were treated with benzofuran 4b, whereas NCI-H23 cells were treated […]
(§9) twice with ice-cold phosphate buffered saline (PBS). Subsequently, the treated cells were collected by centrifugation, fixed in ice-cold 70% (v/v) ethanol, washed with PBS, re-suspended with 100 μg/mL RNase, stained with 40 μg/mL PI, and analyzed by flow cytometry using FACS Calibur (Becton Dickinson, BD, Franklin Lakes, NJ, USA). The cell cycle distributions were calculated using CellQuest software 5.1 (Becton Dickinson).
3. Annexin V-FITC Apoptosis Assay […]
Cells were then rinsed in binding buffer and resuspended in 150 μL of binding buffer with the addition of 1 μL of DAPI (1 μg/μL in PBS). Cells were then analyzed using the flow cytometer BD FACS Canto II and the results were interpreted with FlowJo7.6.4 software (Tree Star, Ashland, 4. VEGFR-2 Kinase Inhibitory Activity […]

VEGFR-2 = VEGFR-2 (Homo sapiens, UniProt P35968); assay: VEGFR-2 kinase inhibitory assay (VEGFR2(KDR) Kinase Assay Kit)
From the text: CA, USA), according to the manufacturer’s instructions.

WI-38 cell line = assay: Cytotoxic activity against non-tumorigenic WI-38 cell line; format: cell-based, human; settings: for Mean tumour selectivity: S.I. WI-38/A549 and NCI-H23; for IC50: non-tumorigenic human lung WI-38 cell line
From the text: Antiproliferative agents are designed to inhibit the cellular growth of tumour cells selectively, while sparing the normal cells.

[3] = test system: M. tuberculosis ATCC 27294; assay: Microplate Alamar Blue Assay, anti-tubercular activity; format: cell-based; settings: Mycobacterium tuberculosis, ATCC27294, 168 h, MABA, 7 days, read-out: MIC
NCI-H23 cells [4] = assay: Cell cycle analysis (PI flow cytometry), NCI-H23; format: cell-based, human; settings: NCI-H23, 24 h at IC50 concentration; for S phase, fold vs control: attenuated; for G2/M phase cell population, fold vs control / sub-G1 phase cell population, fold vs control: augmentation; for G0–G1 phase, fold vs control: reduced
Method: as §8
as §9, with “Dickinson). […]” for “Dickinson).”

Chain of VEGFR-2 (P35968 20-1356): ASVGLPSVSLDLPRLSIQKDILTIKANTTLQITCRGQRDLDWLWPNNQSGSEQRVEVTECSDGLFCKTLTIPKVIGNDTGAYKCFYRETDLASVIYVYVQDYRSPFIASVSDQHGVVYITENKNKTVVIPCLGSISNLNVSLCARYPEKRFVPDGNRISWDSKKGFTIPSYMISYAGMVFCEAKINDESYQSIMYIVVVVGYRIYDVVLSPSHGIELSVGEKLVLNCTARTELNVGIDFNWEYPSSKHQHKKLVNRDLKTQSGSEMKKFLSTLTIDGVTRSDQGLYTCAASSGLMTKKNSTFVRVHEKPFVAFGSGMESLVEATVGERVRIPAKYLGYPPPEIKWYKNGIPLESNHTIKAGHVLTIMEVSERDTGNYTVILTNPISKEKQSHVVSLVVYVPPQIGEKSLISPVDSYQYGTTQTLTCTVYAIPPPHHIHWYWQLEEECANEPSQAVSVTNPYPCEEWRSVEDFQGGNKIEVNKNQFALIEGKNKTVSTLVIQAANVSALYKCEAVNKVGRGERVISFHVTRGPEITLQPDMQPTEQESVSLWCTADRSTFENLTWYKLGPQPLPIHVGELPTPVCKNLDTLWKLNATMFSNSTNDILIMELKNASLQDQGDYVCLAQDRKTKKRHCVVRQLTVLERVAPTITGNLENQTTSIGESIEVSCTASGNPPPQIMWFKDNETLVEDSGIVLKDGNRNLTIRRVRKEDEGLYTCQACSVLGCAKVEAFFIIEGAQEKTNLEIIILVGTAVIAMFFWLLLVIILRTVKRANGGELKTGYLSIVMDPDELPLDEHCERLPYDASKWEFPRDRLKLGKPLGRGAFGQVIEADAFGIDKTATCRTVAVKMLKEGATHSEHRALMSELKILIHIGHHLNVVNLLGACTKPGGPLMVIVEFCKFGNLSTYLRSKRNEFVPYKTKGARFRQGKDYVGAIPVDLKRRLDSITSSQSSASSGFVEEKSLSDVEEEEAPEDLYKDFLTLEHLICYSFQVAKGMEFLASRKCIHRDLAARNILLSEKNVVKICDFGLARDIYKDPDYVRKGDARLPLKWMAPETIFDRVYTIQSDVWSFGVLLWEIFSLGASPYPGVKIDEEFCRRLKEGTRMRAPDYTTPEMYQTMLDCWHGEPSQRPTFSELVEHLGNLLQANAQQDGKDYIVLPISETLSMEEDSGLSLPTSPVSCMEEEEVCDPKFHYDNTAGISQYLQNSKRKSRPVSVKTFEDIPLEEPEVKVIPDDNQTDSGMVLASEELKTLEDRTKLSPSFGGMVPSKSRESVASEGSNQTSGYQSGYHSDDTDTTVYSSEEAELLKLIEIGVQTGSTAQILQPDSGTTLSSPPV

| SMILES | IC50 (A549 cells; Homo sapiens, A549, 48 h) | melting point | IC50 (NCI-H23 cells [1]; Homo sapiens, NCI-H23, 48 h) | further results |
| --- | --- | --- | --- | --- |
| COc1cccc(NC(=S)NNC(=O)c2oc3ccccc3c2C)c1 [Compound 4a, N-(3-Methoxyphenyl)-2–(3-methylbenzofuran-2-carbonyl)hydrazine-1-carbothioamide] | 10.1 ± 0.55 µM | 172 to 174 °C | 34.2 ± 1.71 µM | – |
| Cc1c(C(=O)NNC(=S)Nc2cccc(C(F)(F)F)c2)oc2ccccc12 [Compound 4c, 2-(3-Methylbenzofuran-2-carbonyl)-N-(3-(trifluoromethyl)phenyl)hydrazine-1-carbothioamide] | – | 170 to 172 °C | 24.36 ± 0.12 µM | – |
| Cc1c(C(=O)NNC(=S)Nc2ccc(F)cc2)oc2ccccc12 [Compound 4d, N-(4-Fluorophenyl)-2-(3-methylbenzofuran-2-carbonyl)hydrazine-1-carbothioamide] | 12.8 ± 0.7 µM | 206 to 210 °C | 67.2 ± 3.36 µM | – |
| COc1cccc(NC(=O)NNC(=O)c2oc3ccccc3c2C)c1 [Compound 6a, N-(3-Methoxyphenyl)-2-(3-methylbenzofuran-2-carbonyl)hydrazine-1-carboxamide] | 15.1 ± 0.83 µM | 162 to 164 °C | 56.7 ± 2.83 µM | – |
| COc1ccc(NC(=O)NNC(=O)c2oc3ccccc3c2C)cc1 [Compound 6b, N-(4-Methoxyphenyl)-2-(3-methylbenzofuran-2-carbonyl)hydrazine-1-carboxamide] | 12.5 ± 0.68 µM | 236 to 240 °C | 9.24 ± 0.46 µM | – |
| Cc1c(C(=O)NNC(=O)Nc2ccc(Cl)c(C(F)(F)F)c2)oc2ccccc12 [Compound 6c, N-(4-Chloro-3-(trifluoromethyl)phenyl)-2-(3-methylbenzofuran-2-carbonyl)hydrazine-1-carboxamide] | 47 ± 2.57 µM | 240 to 242 °C | 24.5 ± 1.23 µM | – |
| COc1cccc(C=NNC(=O)c2oc3ccccc3c2C)c1 [Compound 8a, N'-(3-Methoxybenzylidene)-3-methylbenzofuran-2-carbohydrazide] | 44.1 ± 2.41 µM | 242 to 244 °C | 14.9 ± 0.74 µM | – |
| COc1ccc(C=NNC(=O)c2oc3ccccc3c2C)cc1 [Compound 8b, N'-(4-Methoxybenzylidene)-3-methylbenzofuran-2-carbohydrazide] | 9.2 ± 0.5 µM | 236 to 240 °C | 6.15 ± 0.31 µM | – |
| COc1ccc(C(C)=NNC(=O)c2oc3ccccc3c2C)cc1 [Compound 8c, N'-(1-(4-Methoxyphenyl)ethylidene)-3-methylbenzofuran-2-carbohydrazide] | 16.4 ± 0.89 µM | 160 °C | 14 ± 0.7 µM | – |
| Cc1c(C(=O)NN=C2CCCc3ccccc32)oc2ccccc12 [Compound 11, N'-(3,4-Dihydronaphthalen-1(2H)-ylidene)-3-methylbenzofuran-2-carbohydrazide] | 30.2 ± 1.65 µM | 180 to 182 °C | 12.1 ± 0.6 µM | – |
| COc1cccc(NC(=S)NNC(=O)c2oc3ccccc3c2CN2CCOCC2)c1 [Compound 15a, N-(3-Methoxyphenyl)-2-(3-(morpholinomethyl)benzofuran-2-carbonyl)hydrazine-1-carbothioamide] | 5.27 ± 0.29 µM | 190 to 192 °C | 2.52 ± 0.13 µM | IC50 (A549 cells; 48 h): 5.27 ± 0.29 µM; IC50 (NCI-H23 cells [1]; 48 h): 2.52 ± 0.13 µM; total apoptosis (NCI-H23 cells [2]): 34.59%; IC50 (VEGFR-2): 0.133 ± 0.0078 µM; Mean tumour selectivity (WI-38 cell line): 8.4; IC50 (WI-38 cell line): 32.8 ± 1.98 µM; MIC [3]: 62.5 mg/L (≈ 142 µM); S phase, fold vs control (NCI-H23 cells [4]): 0.50 fold; G2/M phase cell population, fold vs control (NCI-H23 cells [4]): 5.33 fold; sub-G1 phase cell population, fold vs control (NCI-H23 cells [4]): 13.13 fold; G0–G1 phase, fold vs control (NCI-H23 cells [4]): 0.56 fold |
| COc1ccc(NC(=S)NNC(=O)c2oc3ccccc3c2CN2CCOCC2)cc1 [Compound 15b, N-(4-Methoxyphenyl)-2-(3-(morpholinomethyl)benzofuran-2-carbonyl)hydrazine-1-carbothioamide] | 5.7 ± 0.31 µM | 198 to 200 °C | 68.9 ± 3.44 µM | – |
| O=C(NNC(=S)Nc1cccc(C(F)(F)F)c1)c1oc2ccccc2c1CN1CCOCC1 [Compound 15c, 2-(3-(Morpholinomethyl)benzofuran-2-carbonyl)-N-(3-(trifluoromethyl)phenyl)hydrazine-1-carbothioamide] | 6.3 ± 0.34 µM | 210 to 212 °C | 2.21 µM | IC50 (NCI-H23 cells [1]; 48 h): 2.22 ± 0.11 µM |
| COc1cccc(NC(=O)NNC(=O)c2oc3ccccc3c2CN2CCOCC2)c1 [Compound 16a, N-(3-Methoxyphenyl)-2-(3-(morpholinomethyl)benzofuran-2-carbonyl)hydrazine-1-carboxamide] | 1.52 µM | – | 0.49 ± 0.02 µM | IC50 (A549 cells; 48 h): 1.5 ± 0.08 µM; total apoptosis (NCI-H23 cells [2]): 36.81%; IC50 (VEGFR-2): 0.0454 ± 0.0027 µM; Mean tumour selectivity (WI-38 cell line): 12.9; IC50 (WI-38 cell line): 12.9 ± 0.78 µM; MIC [3]: 125 mg/L (≈ 294 µM); S phase, fold vs control (NCI-H23 cells [4]): 0.51 fold; G2/M phase cell population, fold vs control (NCI-H23 cells [4]): 6.90 fold; sub-G1 phase cell population, fold vs control (NCI-H23 cells [4]): 12.54 fold; G0–G1 phase, fold vs control (NCI-H23 cells [4]): 0.47 fold |
| COc1ccc(NC(=O)NNC(=O)c2oc3ccccc3c2CN2CCOCC2)cc1 [Compound 16b, N-(4-Methoxyphenyl)-2-(3-(morpholinomethyl)benzofuran-2-carbonyl)hydrazine-1-carboxamide] | 18.9 ± 1.03 µM | 242 to 244 °C | 5.09 ± 0.25 µM | – |
| O=C(NN=Cc1ccccc1)c1oc2ccccc2c1CN1CCOCC1 [Compound 17a, N'-Benzylidene-3-(morpholinomethyl)benzofuran-2-carbohydrazide] | 6.01 ± 0.03 µM | 174 °C | 23 ± 1.15 µM | – |
| COc1ccc(C=NNC(=O)c2oc3ccccc3c2CN2CCOCC2)cc1 [Compound 17b, N'-(4-Methoxybenzylidene)-3-(morpholinomethyl)benzofuran-2-carbohydrazide] | 10.8 ± 0.59 µM | 200 °C | 3.04 ± 0.15 µM | – |
| O=C(NN=C1CCCc2ccccc21)c1oc2ccccc2c1CN1CCOCC1 [Compound 18, N'-(3,4-Dihydronaphthalen-1(2H)-ylidene)-3-(morpholinomethyl)benzofuran-2-carbohydrazide] | 3.7 ± 0.2 µM | 200 °C | 29.8 ± 1.49 µM | – |
| NNC(=O)c1ccncc1 [INH, Isoniazid, reference compound] | – | – | – | MIC [3]: 0.24 mg/L (≈ 1.75 µM) |
